Test results: PubChem BioAssay (NCI)
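A five-concentration, 48-hour dose response in 96-well plates underlies each endpoint, interpolated linearly between surrounding concentrations. GI50 is the concentration that inhibits growth by half. TGI marks complete inhibition of growth.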

Legend:
Experiment in all cases: NCI-60 cell line screen, 48 h
786-0 renal = tested on: 786-0 renal
A498 renal = tested on: A498 renal
A549 NSCLC = tested on: A549 NSCLC
ACHN renal = tested on: ACHN renal
BT-549 breast = tested on: BT-549 breast
CAKI-1 renal = tested on: CAKI-1 renal
CCRF-CEM leukemia = tested on: CCRF-CEM leukemia
COLO 205 colon = tested on: COLO 205 colon
DU-145 prostate = tested on: DU-145 prostate
EKVX NSCLC = tested on: EKVX NSCLC
HCC-2998 colon = tested on: HCC-2998 colon
HCT-116 colon = tested on: HCT-116 colon
HCT-15 colon = tested on: HCT-15 colon
HL-60(TB) leukemia = tested on: HL-60(TB) leukemia
HOP-62 NSCLC = tested on: HOP-62 NSCLC
HOP-92 NSCLC = tested on: HOP-92 NSCLC
HS 578T breast = tested on: HS 578T breast
HT29 colon = tested on: HT29 colon
IGROV1 ovarian = tested on: IGROV1 ovarian
K-562 leukemia = tested on: K-562 leukemia
KM12 colon = tested on: KM12 colon
LOX IMVI melanoma = tested on: LOX IMVI melanoma
M14 melanoma = tested on: M14 melanoma
MALME-3M melanoma = tested on: MALME-3M melanoma
MCF7 breast = tested on: MCF7 breast
MDA-MB-231 breast = tested on: MDA-MB-231 breast
MDA-MB-435 = tested on: MDA-MB-435
MDA-MB-468 breast = tested on: MDA-MB-468 breast
MOLT-4 leukemia = tested on: MOLT-4 leukemia
NCI-H226 lung = tested on: NCI-H226 lung
NCI-H23 lung = tested on: NCI-H23 lung
NCI-H460 lung = tested on: NCI-H460 lung
NCI-H522 lung = tested on: NCI-H522 lung
OVCAR-3 ovarian = tested on: OVCAR-3 ovarian
OVCAR-4 ovarian = tested on: OVCAR-4 ovarian
OVCAR-5 ovarian = tested on: OVCAR-5 ovarian
OVCAR-8 ovarian = tested on: OVCAR-8 ovarian
PC-3 prostate = tested on: PC-3 prostate
RPMI-8226 leukemia = tested on: RPMI-8226 leukemia
RXF 393 renal = tested on: RXF 393 renal
SF-268 CNS = tested on: SF-268 CNS
SF-295 CNS = tested on: SF-295 CNS
SF-539 CNS = tested on: SF-539 CNS
SK-MEL-2 melanoma = tested on: SK-MEL-2 melanoma
SK-MEL-28 melanoma = tested on: SK-MEL-28 melanoma
SK-MEL-5 melanoma = tested on: SK-MEL-5 melanoma
SK-OV-3 ovarian = tested on: SK-OV-3 ovarian
SN12C renal = tested on: SN12C renal
SNB-19 CNS = tested on: SNB-19 CNS
SNB-75 CNS = tested on: SNB-75 CNS
SR leukemia = tested on: SR leukemia
SW-620 colon = tested on: SW-620 colon
T-47D breast = tested on: T-47D breast
TK-10 renal = tested on: TK-10 renal
U251 CNS = tested on: U251 CNS
UACC-257 melanoma = tested on: UACC-257 melanoma
UACC-62 melanoma = tested on: UACC-62 melanoma
UO-31 renal = tested on: UO-31 renal

COc1ccccc1[C@H]1C(C(=O)c2ccc(Cl)cc2)C2(N[C@@H]1c1ccccc1)C(=O)Nc1ccccc12 (stereo partly specified)
GI50 (786-0 renal): 2.13 µM | TGI (786-0 renal): 10.1 µM | GI50 (A498 renal): 4.75 µM | TGI (A498 renal): 18 µM | GI50 (A549 NSCLC): 1.99 µM | TGI (A549 NSCLC): 12 µM | GI50 (ACHN renal): 1.99 µM | TGI (ACHN renal): 22.5 µM | GI50 (BT-549 breast): 1.97 µM | TGI (BT-549 breast): 6.57 µM | GI50 (CAKI-1 renal): 1.23 µM | TGI (CAKI-1 renal): 51.5 µM | GI50 (CCRF-CEM leukemia): 1.91 µM | TGI (CCRF-CEM leukemia): 8.25 µM | GI50 (COLO 205 colon): 2.25 µM | TGI (COLO 205 colon): 9.75 µM | GI50 (DU-145 prostate): 2.45 µM | TGI (DU-145 prostate): 24.9 µM | GI50 (EKVX NSCLC): 2.13 µM | TGI (EKVX NSCLC): 61.5 µM | GI50 (HCC-2998 colon): 2.1 µM | TGI (HCC-2998 colon): 7.72 µM | GI50 (HCT-116 colon): 1.5 µM | TGI (HCT-116 colon): 4.66 µM | GI50 (HCT-15 colon): 1.9 µM | TGI (HCT-15 colon): 11.5 µM | GI50 (HL-60(TB) leukemia): 1.42 µM | TGI (HL-60(TB) leukemia): 5.48 µM | GI50 (HOP-62 NSCLC): 3.86 µM | TGI (HOP-62 NSCLC): 14 µM | GI50 (HOP-92 NSCLC): 1.79 µM | TGI (HOP-92 NSCLC): 5.88 µM | GI50 (HS 578T breast): 1.67 µM | TGI (HS 578T breast): 10.4 µM | GI50 (HT29 colon): 1.49 µM | TGI (HT29 colon): 4.1 µM | GI50 (IGROV1 ovarian): 1.95 µM | TGI (IGROV1 ovarian): 11.6 µM | GI50 (K-562 leukemia): 1.78 µM | TGI (K-562 leukemia): 44.4 µM | GI50 (KM12 colon): 2.45 µM | TGI (KM12 colon): 14.6 µM | GI50 (LOX IMVI melanoma): 1.55 µM | TGI (LOX IMVI melanoma): 6.15 µM | GI50 (M14 melanoma): 1.81 µM | TGI (M14 melanoma): 7.63 µM | GI50 (MALME-3M melanoma): 3.36 µM | TGI (MALME-3M melanoma): 12.1 µM | GI50 (MCF7 breast): 1.67 µM | TGI (MCF7 breast): 8.88 µM | GI50 (MDA-MB-231 breast): 1.6 µM | TGI (MDA-MB-231 breast): 5.79 µM | GI50 (MDA-MB-435): 1.48 µM | TGI (MDA-MB-435): 3.73 µM | GI50 (MDA-MB-468 breast): 1.24 µM | TGI (MDA-MB-468 breast): 3.85 µM | GI50 (MOLT-4 leukemia): 1.75 µM | TGI (MOLT-4 leukemia): 16.1 µM | GI50 (NCI-H226 lung): 1.61 µM | TGI (NCI-H226 lung): 9.08 µM | GI50 (NCI-H23 lung): 1.83 µM | TGI (NCI-H23 lung): 8.71 µM | GI50 (NCI-H460 lung): 1.21 µM | TGI (NCI-H460 lung): 2.89 µM | GI50 (NCI-H522 lung): 1.24 µM | TGI (NCI-H522 lung): 4.17 µM | GI50 (OVCAR-3 ovarian): 2.19 µM | TGI (OVCAR-3 ovarian): 12.1 µM | GI50 (OVCAR-4 ovarian): 2.36 µM | TGI (OVCAR-4 ovarian): 31.8 µM | GI50 (OVCAR-5 ovarian): 3.24 µM | TGI (OVCAR-5 ovarian): 19.5 µM | GI50 (OVCAR-8 ovarian): 1.94 µM | TGI (OVCAR-8 ovarian): 8.55 µM | GI50 (PC-3 prostate): 1.85 µM | TGI (PC-3 prostate): 13.6 µM | GI50 (RPMI-8226 leukemia): 2.06 µM | TGI (RPMI-8226 leukemia): 21.9 µM | GI50 (RXF 393 renal): 1.32 µM | TGI (RXF 393 renal): 3.51 µM | GI50 (SF-268 CNS): 2.19 µM | TGI (SF-268 CNS): 29.8 µM | GI50 (SF-295 CNS): 2.39 µM | TGI (SF-295 CNS): 12.6 µM | GI50 (SF-539 CNS): 2.83 µM | TGI (SF-539 CNS): 10.5 µM | GI50 (SK-MEL-2 melanoma): 1.73 µM | TGI (SK-MEL-2 melanoma): 6.06 µM | GI50 (SK-MEL-28 melanoma): 4.16 µM | TGI (SK-MEL-28 melanoma): 13.2 µM | GI50 (SK-MEL-5 melanoma): 1.87 µM | TGI (SK-MEL-5 melanoma): 6.52 µM | GI50 (SK-OV-3 ovarian): 4.24 µM | TGI (SK-OV-3 ovarian): 55.3 µM | GI50 (SN12C renal): 1.24 µM | TGI (SN12C renal): 2.9 µM | GI50 (SNB-19 CNS): 3.34 µM | TGI (SNB-19 CNS): 61.5 µM | GI50 (SNB-75 CNS): 1.13 µM | TGI (SNB-75 CNS): 13.2 µM | GI50 (SR leukemia): 1.42 µM | TGI (SR leukemia): 4.26 µM | GI50 (SW-620 colon): 1.86 µM | TGI (SW-620 colon): 24.4 µM | GI50 (T-47D breast): 1.97 µM | TGI (T-47D breast): 44.1 µM | GI50 (TK-10 renal): 3.68 µM | TGI (TK-10 renal): 33.2 µM | GI50 (U251 CNS): 1.81 µM | TGI (U251 CNS): 7.38 µM | GI50 (UACC-257 melanoma): 2.63 µM | TGI (UACC-257 melanoma): 14 µM | GI50 (UACC-62 melanoma): 1.86 µM | TGI (UACC-62 melanoma): 8.04 µM | GI50 (UO-31 renal): 1.11 µM | TGI (UO-31 renal): 12.5 µM
